Data reported in US20120269725A1, “TARGETED RADIOLABELED COMPOUNDS AND THEIR USE FOR THE TREATMENT AND DIAGNOSIS OF CANCER” (priority 2009, published 2012).

Tests used:
[1] = test system: U-87 human glioblastoma cells; test: Clonogenic assay in U-87 cells; assay type: cell-based; details: 24 h treatment at 0.5 to 5 μCi/mL; 100 and 500 cells/flask; monitored 7 weeks
Description: U-87 cells were plated for 24 h before treatment and then treated for 24 h with concentrations of 6b fast and 6b slow ranging from 0.5 μCi/mL to 5 μCi/mL (18.5 to 185 kBq/mL). Cells were harvested, washed, and their numbers counted using a Cellometer® cell counter. Cells were diluted in fresh medium. Cells from each concentration of 6b fast and 6b slow were plated in three T25 flasks at two densities, 100 cells/flask and 500 cells/flask. Control cells were sham-treated with PBS and processed in a manner identical to cells treated with 6b. Cells were periodically examined and fresh medium was added every 5-7 days. Three weeks after plating, media was removed from the control flasks, cells were washed with 5 mL ice-cold PBS, followed by 5 mL PBS/methanol (1:1; v/v), and fixed in 5 mL methanol for 10 minutes. The methanol was discarded and flasks were left open to dry for a few hours. Crystal violet (5 mL; 0.25% in 1:1 PBS/methanol) was added to each flask to stain the cells. After approximately 10 min, the dye was removed and flasks were rinsed first with tap water followed by distilled water and were left to dry. […] This finding indicates the extraordinarily effective killing of U-87 cells by 6b.

[2] = test system: IP OVCAR-3 tumors; test: Pilot therapy of IP OVCAR-3 tumors in athymic mice; assay type: in vivo
Text: In pilot therapy experiments, the effects of unmodified ^125IUdR on the growth of IP OVCAR-3 tumors were compared to the therapeutic effects of the 6b diastereomeric mixture and 7b diastereomeric mixture. The tumor model used in this study, OVCAR-3 cell line, was established from the malignant ascites of a patient with progressive adenocarcinoma of the ovary after many types of chemotherapy including cyclophosphamide, adriamycin, and cisplatin. OVCAR-3 is resistant in vitro to clinically relevant concentrations of adriamycin, melphalan, and cisplatin (Hamilton T C, Young R C, Louie K G, Behrens B C, McKoy W M, Grotzinger K R, Ozols R F. Characterization of a xenograft model of human ovarian carcinoma which produces ascites and intraabdominal carcinomatosis in mice. Cancer Res. 1984; 44:5286-90.). In immunodeficient mice, IP injected OVCAR-3 cells produce malignant ascites, peritoneal carcinomatosis, and serosal and visceral seeding that, if left untreated, leads to death from respiratory compromise, hemorrhage from invasion of intra-abdominal blood vessels, and bowel obstruction. Substantial literature data (nearly 100 publications) confirm that this tumor model has pathogenesis and metastatic properties similar to those of human ovarian cancer.
Mice received IP implants of approximately 2.4×10^8 OVCAR-3 cells/mouse isolated from fresh OVCAR-3 mouse ascites. Cell viability was measured before and after injection, and was ≧90%. Four days after tumor cells were implanted, the mice received SQ transponders and were randomized via a lottery into four groups: NT—untreated controls that received IP injection of PBS; 7b group—receiving IP doses of the 7b diastereomeric mixture in PBS (average 0.4 mCi/mouse (14.8 MBq)); 6b group—receiving IP doses of the 6b diastereomeric mixture in PBS (average dose 0.36 mCi/mouse (13.3 MBq)); and ^125IUdR group—receiving IP doses of ^125IUdR (average 0.43 mCi/mouse (15.9 MBq)) in PBS. Mice were monitored three times per week.
Mice in the 6b group received 0.22 mCi (8.1 MBq) 6b diastereomeric mixture on day 27; and on day 28 mice in ^125IUdR group were treated with additional 0.2 mCi (7.4 MBq) ^125IUdR. Slight differences in the dosing schedule and the administered doses are because of the required large quantities of the compounds. For these experiments, ˜20 mCi of no-carrier added and radiochemically pure compounds were required. Each agent was purified on the analytical reversed phase HPLC column. The use of preparative columns in this case is impractical because the products are recovered in large volumes of acetonitrile-containing solvent that must be evaporated to dryness before the use in mice.
Overall, mice in the 7b group were treated with an average of 0.58 mCi (21.5 MBq) 7b diastereomeric mixture; mice in the 6b group were treated with an average of 0.58 mCi (21.5 MBq) 6b diastereomeric mixture, and mice in the ^125IUdR group were treated with an average of 0.63 mCi (23.3 MBq) ^125IUdR.
The therapy was terminated 7 weeks after the first dosing. Mice were sacrificed for the biodistribution study. Blood and solid tumor were taken for the evaluation of their radioactive content. The peritoneal cavity was lavaged with 2-mL aliquots of PBS, and PBS wash and ascites were collected. One mL of the ascites suspension with cancer cells was taken for gamma counting. The rest of the abdominal fluid was centrifuged and 0.5 mL of the supernatant was reserved for gamma counting. The weight of the cell pellet and the supernatant were determined.
Two weeks after the first dose of radiolabeled compounds, the whole body radioactivity was measured to determine to what extent the additional doses of the compounds may increase the radiation burden and therefore may be detrimental to the animal health (FIG. 11B). The absolute amounts were low and ranged from […] for the 6b group to […] in the 7b group. […]

[3] = test system: subcutaneous LS174T tumors (human colorectal adenocarcinoma); test: Biodistribution, clearance and planar imaging in athymic mice bearing subcutaneous LS174T xenografts; assay type: in vivo, athymic NCr-nu/nu mice; details: for tumor uptake and retention, times higher than parent drug ^131IUdR: co-injected ^131IUdR
Description: The in vivo properties and pharmacology of several compounds of the present invention were initially tested in athymic mice bearing subcutaneous LS174T tumors (human colorectal adenocarcinoma), which have several desirable properties such as rapid growth when implanted subcutaneously (SQ), good vascularization and the availability of considerable historical data for the parent compound IUdR. The clearance rates from blood, tumor, and associated organs were analyzed to determine the structure-pharmacokinetics relationship. The first compounds studied were 6b-fast and 6b-slow. Four-to-six-weeks old female athymic NCr-nu/nu mice (NCI-Frederic, Md., USA) were allowed to acclimate in Applicants' facility after delivery for no less than 5 days. All protocols involving animals were approved by the University of Nebraska Institutional Animal Care and Use Committee. Mice were housed in microisolator cages with free access to sterilized standard rodent diet and water. LS174T cells in 0.1 mL of serum-free medium were implanted SQ at 5×10^6 cells/mouse. One week later identification transponders were implanted, also SQ. Body weights and tumor sizes were monitored twice weekly, and approximately 10 days after the cell implant, mice were randomized for biodistribution studies.
Each of the two isomers, 6b-fast and 6b-slow, was tested independently in separate groups of mice. The comparison to the parent compound, IUdR, was made by co-injecting ^131IUdR with a particular ^125I-labeled diastereomer. Compounds were administered intravenously (IV) via a tail vein.
Biodistribution was conducted at 1 h, 4 h, 24 and 48 h after the administration of radiolabeled compounds (n=6 per time point). The injection doses contained approximately 1 μCi (37 kBq) ^131IUdR and 5 μCi (185 kBq) ^125I-labeled 6b-fast or 6b-slow dissolved in 0.2 mL phosphate buffered saline containing 0.1% bovine serum albumin, pH 7.2 (PBS). All syringes were weighted after loading with the compound solution and immediately after the injection to determine the weight of the injected dose. Triplicate standards of the injected dose were prepared in PBS and counted in a gamma counter just before the beginning of the experiment. The radioactive content of these standards was also determined alongside all tissues after the necropsy to correct the tissue uptake for the decay of the radioisotope. Blood, liver, spleen, heart, lungs, kidneys, brain, tumor and tail were collected during necropsy. Tissues were rinsed in ice-cold saline, patted dry and weighed. The tail was collected to validate the quality of the IV injections.
FIG. 7 presents whole body images for a typical time course distribution (24 h, 48 h, and 72 h) of 6b administered as a diastereomeric mixture in LS174T-bearing athymic mice. The images were acquired 1, 2, and 3 days after the administration of the compound. […] It is also apparent that based on pharmacokinetics, the use of these compounds can be tailored to a specific malignancy and its anatomical location.

O=c1[nH]c(=O)n([C@H]2C[C@H](O)[C@@H](COP3(=O)OCc4ccccc4O3)O2)cc1[125I] (some centres unmarked) [Compound 6b, 5-[^125I]-Iodo-5′-O-cycloSaligenyl-2′-deoxyuridine Monophosphate] was tested, and the colony formation [1] was “colonies were not formed”, the “whole body retention, median” value ([2]; after 14 days) was 1.89 % ID and the whole body retention ([2]; after 14 days, value with spread in brackets) was 1.87 (0.16) % ID. The “reduction in solid tumor deposits as compared to ^125IUdR” value ([2]; diastereomeric mixtures IP, total average 0.58 mCi, 7 weeks after first dose) was ~50%, the “tumor retention compared to ^125IUdR” value ([2]; necropsy 4 weeks after the boost dose) was “significantly higher compared to ^125IUdR” and the “tumor uptake and retention, times higher than parent drug ^131IUdR” value ([3]; 24 hours after IV administration) was ~14 ×. For the same molecule, the “tumor uptake and retention, times higher than parent drug ^131IUdR” value ([3]; 48 hours after IV administration) was ~7 × and the “clearance of normal organs versus tumor (whole body images)” value ([3]; diastereomeric mixture, images 24 h, 48 h, 72 h after IV administration) was “normal organs such as liver clear the compound at a much faster rate than the tumor”.
